Measured values taken from article PMC5908474 (European journal of medicinal chemistry, 2018).
Where two headings read alike, the source gives them in different places. Blank lines part the entries; values can stand above or below the compound they belong to.

Legend:
recombinant human S1PR2 = recombinant human S1PR2 (Homo sapiens, UniProt O95136); assay: [32P]S1P competitive binding assay, S1PR2
recombinant human S1PR3 = recombinant human S1PR3 (Homo sapiens, UniProt Q99500); assay: [32P]S1P competitive binding assay, S1PR3
recombinant human S1PR1 = recombinant human S1PR1 (Homo sapiens, UniProt P21453); assay: [32P]S1P competitive binding assay, S1PR1; settings: for IC50: mean ± SD, CHO cell membrane, recombinant human S1PR1, 0.1 nM [32P]S1P; for fold increased S1PR1 IC50 value compared to compound 4: vs compound 4 (2.6 nM)
recombinant human S1PR5 = recombinant human S1PR5 (Homo sapiens, UniProt Q9H228); assay: [32P]S1P competitive binding assay, S1PR5
recombinant human S1PR4 = target: T1, recombinant human S1PR4 (Homo sapiens, UniProt O95977); assay: [32P]S1P competitive binding assay, S1PR4
T1 sequence (O95977 1-384): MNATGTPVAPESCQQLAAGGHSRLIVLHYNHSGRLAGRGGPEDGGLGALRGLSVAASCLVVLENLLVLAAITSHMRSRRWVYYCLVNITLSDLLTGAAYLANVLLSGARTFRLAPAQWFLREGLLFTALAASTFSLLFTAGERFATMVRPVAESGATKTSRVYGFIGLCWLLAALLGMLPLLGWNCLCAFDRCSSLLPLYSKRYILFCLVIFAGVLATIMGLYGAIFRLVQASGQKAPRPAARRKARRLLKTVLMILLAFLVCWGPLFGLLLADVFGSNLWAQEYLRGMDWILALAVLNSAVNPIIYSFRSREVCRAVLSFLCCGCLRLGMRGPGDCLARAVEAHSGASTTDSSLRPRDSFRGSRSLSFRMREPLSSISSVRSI

recombinant human S1PR3, sequence (Q99500 whole entry): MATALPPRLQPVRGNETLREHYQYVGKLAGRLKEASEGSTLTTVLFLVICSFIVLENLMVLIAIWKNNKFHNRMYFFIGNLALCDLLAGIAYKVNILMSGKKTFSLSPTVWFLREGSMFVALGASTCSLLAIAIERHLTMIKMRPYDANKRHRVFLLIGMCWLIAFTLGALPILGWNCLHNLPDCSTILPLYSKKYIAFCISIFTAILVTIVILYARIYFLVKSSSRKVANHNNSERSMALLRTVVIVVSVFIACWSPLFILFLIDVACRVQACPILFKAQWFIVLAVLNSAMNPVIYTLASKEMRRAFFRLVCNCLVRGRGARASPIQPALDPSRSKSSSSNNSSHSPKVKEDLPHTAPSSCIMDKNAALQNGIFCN
recombinant human S1PR1, sequence (P21453 whole entry): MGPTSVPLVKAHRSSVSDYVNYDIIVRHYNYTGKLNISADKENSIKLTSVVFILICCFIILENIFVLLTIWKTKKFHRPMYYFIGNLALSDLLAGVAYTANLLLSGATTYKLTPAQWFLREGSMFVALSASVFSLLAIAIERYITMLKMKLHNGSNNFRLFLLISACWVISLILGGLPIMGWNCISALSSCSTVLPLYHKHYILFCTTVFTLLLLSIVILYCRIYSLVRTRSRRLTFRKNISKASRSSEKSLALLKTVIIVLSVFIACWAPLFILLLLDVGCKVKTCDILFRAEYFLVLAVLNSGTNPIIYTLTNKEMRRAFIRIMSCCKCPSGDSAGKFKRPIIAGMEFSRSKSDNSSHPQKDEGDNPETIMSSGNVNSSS
recombinant human S1PR2, sequence (O95136 whole entry): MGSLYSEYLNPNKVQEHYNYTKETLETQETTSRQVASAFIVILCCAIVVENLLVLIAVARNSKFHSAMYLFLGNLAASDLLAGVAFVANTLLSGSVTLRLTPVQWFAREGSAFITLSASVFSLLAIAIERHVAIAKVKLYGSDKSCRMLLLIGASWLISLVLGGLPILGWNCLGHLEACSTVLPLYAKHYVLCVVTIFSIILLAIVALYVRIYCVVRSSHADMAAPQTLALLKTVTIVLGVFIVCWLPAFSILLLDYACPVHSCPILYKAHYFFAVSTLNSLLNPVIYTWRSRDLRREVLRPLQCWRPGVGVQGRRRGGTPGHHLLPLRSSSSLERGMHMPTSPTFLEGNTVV
recombinant human S1PR5, sequence (Q9H228 whole entry): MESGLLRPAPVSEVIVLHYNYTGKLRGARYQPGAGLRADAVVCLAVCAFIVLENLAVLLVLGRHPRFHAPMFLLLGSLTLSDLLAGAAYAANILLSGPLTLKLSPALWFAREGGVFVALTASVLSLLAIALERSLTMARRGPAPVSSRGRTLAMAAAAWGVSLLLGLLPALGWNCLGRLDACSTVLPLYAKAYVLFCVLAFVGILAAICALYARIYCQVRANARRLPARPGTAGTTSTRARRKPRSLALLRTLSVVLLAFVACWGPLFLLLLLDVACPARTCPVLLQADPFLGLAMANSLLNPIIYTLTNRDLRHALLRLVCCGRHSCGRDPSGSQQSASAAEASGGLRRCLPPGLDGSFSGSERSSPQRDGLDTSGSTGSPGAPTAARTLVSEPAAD

Structure (SMILES): O=C(O)c1cn(Cc2ccc(-c3noc(-c4ccc(OCCF)c(C(F)(F)F)c4)n3)cc2)nn1 [12a, 1-(4-(5-(4-(2-Fluoroethoxy)-3-(trifluoromethyl)phenyl)-1,2,4-oxadiazol-3-yl)benzyl)-1H-1,2,3-triazole-4-carbox-ylic acid]
IC50 (recombinant human S1PR1; read-out: S1PR1 IC50): 341 ± 126 nM
fold increased S1PR1 IC50 value compared to compound 4 (recombinant human S1PR1): 130 fold

Structure (SMILES): OCc1cn(Cc2ccc(-c3noc(-c4ccc(OCCF)c(C(F)(F)F)c4)n3)cc2)nn1 [12b, (1-(4-(5-(4-(2-Fluoroethoxy)-3-(trifluoromethyl)phenyl)-1,2,4-oxadiazol-3-yl)benzyl)-1H-1,2,3-triazol-4-yl)met-hanol]
IC50 (recombinant human S1PR2; read-out: IC50 (nM) S1PR2, mean ± SD, membranes with recombinant human S1PR2, [32P]S1P): > 1000 nM
IC50 (recombinant human S1PR5; read-out: IC50 (nM) S1PR5, mean ± SD, membranes with recombinant human S1PR5, [32P]S1P): > 1000 nM
IC50 (recombinant human S1PR3; read-out: IC50 (nM) S1PR3, mean ± SD, membranes with recombinant human S1PR3, [32P]S1P): > 1000 nM
IC50 (recombinant human S1PR4; read-out: IC50 (nM) S1PR4, mean ± SD, membranes with recombinant human S1PR4, [32P]S1P): > 1000 nM
selectivity toward S1PR1 over S1PR2-5 (recombinant human S1PR1; S1PR1 over S1PR2-5): > 100 fold
fold decreased S1PR1 IC50 value compared to acid 12a (recombinant human S1PR1; vs 12a (341 nM)): 35 fold

Structure (SMILES): O=C(O)CCNCc1ccc(-c2noc(-c3ccc(OCCF)c(C(F)(F)F)c3)n2)cc1 [16b, 3-((4-(5-(4-(2-Fluoroethoxy)-3-(trifluoromethyl)phenyl)-1,2,4-oxadiazol-3-yl)benzyl)amino)propanoic acid]
IC50 (recombinant human S1PR2): > 1000 nM
IC50 (recombinant human S1PR5): > 1000 nM
IC50 (recombinant human S1PR3): > 1000 nM
IC50 (recombinant human S1PR4): > 1000 nM
IC50 (recombinant human S1PR1; S1PR1 IC50 (nM)): 6.3 ± 1.3 nM

Structure (SMILES): NCCOCc1ccc(-c2noc(-c3ccc(OCCF)c(C(F)(F)F)c3)n2)cc1 [21b, 2-((4-(5-(4-(2-Fluoroethoxy)-3-(trifluoromethyl)phenyl)-1,2,4-oxadiazol-3-yl)benzyl)oxy)ethan-1-amine]
IC50 (recombinant human S1PR1; S1PR1 IC50 (nM)): 44.2 ± 6.8 nM

The next lines start with the values.

IC50 (recombinant human S1PR2): > 1000 nM
IC50 (recombinant human S1PR3): > 1000 nM
Structure (SMILES): NS(=O)(=O)c1ccc(-c2noc(-c3ccc(OCCF)c(C(F)(F)F)c3)n2)cc1 [9a, 4-(5-(4-(2-Fluoroethoxy)-3-(trifluoromethyl)phenyl)-1,2,4-oxadiazol-3-yl)benzenesulfonamide]

IC50 (recombinant human S1PR1; S1PR1 IC50 (nM)): > 1000 nM
Structure (SMILES): O=C(O)c1ccc(-c2noc(-c3ccc(OCCF)c(C(F)(F)F)c3)n2)cc1 [10a, 4-(5-(4-(2-Fluoroethoxy)-3-(trifluoromethyl)phenyl)-1,2,4-oxadiazol-3-yl)benzoic acid]

fold increased S1PR1 IC50 value compared to compound 9b (recombinant human S1PR1; vs benzamide 9b): 4 fold
Structure (SMILES): O=C(NO)c1ccc(-c2noc(-c3ccc(OCCF)c(C(F)(F)F)c3)n2)cc1 [10b, 4-(5-(4-(2-Fluoroethoxy)-3-(trifluoromethyl)phenyl)-1,2,4-oxadiazol-3-yl)-N-hydroxybenzamide]

IC50 (recombinant human S1PR2): > 1000 nM
IC50 (recombinant human S1PR3): > 1000 nM
fold decreased S1PR1 IC50 value compared to compound 9b (recombinant human S1PR1; vs benzamide 9b): 5 fold
Structure (SMILES): NNC(=O)c1ccc(-c2noc(-c3ccc(OCCF)c(C(F)(F)F)c3)n2)cc1 [10c, 4-(5-(4-(2-Fluoroethoxy)-3-(trifluoromethyl)phenyl)-1,2,4-oxadiazol-3-yl)benzohydrazide]

IC50 (recombinant human S1PR1; S1PR1 IC50 (nM)): 99.8 ± 12.2 nM
fold increased S1PR1 IC50 value compared to compound 4 (recombinant human S1PR1): 38 fold
Structure (SMILES): O=C(O)CNCc1ccc(-c2noc(-c3ccc(OCCF)c(C(F)(F)F)c3)n2)cc1 [16a, (4-(5-(4-(2-Fluoroethoxy)-3-(trifluoromethyl)phenyl)-1,2,4-oxadiazol-3-yl)benzyl)glycine]
